Source: patent US10683278B2 (JINAN UNIVERSITY, priority 2015, dated 2020)
Several values for one entry are separate records, joined by “and”; a condition that tells them apart may be missing. Equal values may be shown once. Read-outs that look alike come from different tables or passages of the source.

Columns and labels:
AXL kinase = molecular target: T1, AXL kinase (Homo sapiens, UniProt P30530); assay: IC50 test on AXL kinase (Z′-LYTE FRET kinase activity detection); assay type: biochemical; conditions: for IC50: Z′-LYTE FRET peptide assay, 1 h reaction; for inhibitory activity on AXL kinase: competitive experiment with ATP, in words
T1 construct: purchased Invitrogen PV4803
T1 sequence (P30530 26-894): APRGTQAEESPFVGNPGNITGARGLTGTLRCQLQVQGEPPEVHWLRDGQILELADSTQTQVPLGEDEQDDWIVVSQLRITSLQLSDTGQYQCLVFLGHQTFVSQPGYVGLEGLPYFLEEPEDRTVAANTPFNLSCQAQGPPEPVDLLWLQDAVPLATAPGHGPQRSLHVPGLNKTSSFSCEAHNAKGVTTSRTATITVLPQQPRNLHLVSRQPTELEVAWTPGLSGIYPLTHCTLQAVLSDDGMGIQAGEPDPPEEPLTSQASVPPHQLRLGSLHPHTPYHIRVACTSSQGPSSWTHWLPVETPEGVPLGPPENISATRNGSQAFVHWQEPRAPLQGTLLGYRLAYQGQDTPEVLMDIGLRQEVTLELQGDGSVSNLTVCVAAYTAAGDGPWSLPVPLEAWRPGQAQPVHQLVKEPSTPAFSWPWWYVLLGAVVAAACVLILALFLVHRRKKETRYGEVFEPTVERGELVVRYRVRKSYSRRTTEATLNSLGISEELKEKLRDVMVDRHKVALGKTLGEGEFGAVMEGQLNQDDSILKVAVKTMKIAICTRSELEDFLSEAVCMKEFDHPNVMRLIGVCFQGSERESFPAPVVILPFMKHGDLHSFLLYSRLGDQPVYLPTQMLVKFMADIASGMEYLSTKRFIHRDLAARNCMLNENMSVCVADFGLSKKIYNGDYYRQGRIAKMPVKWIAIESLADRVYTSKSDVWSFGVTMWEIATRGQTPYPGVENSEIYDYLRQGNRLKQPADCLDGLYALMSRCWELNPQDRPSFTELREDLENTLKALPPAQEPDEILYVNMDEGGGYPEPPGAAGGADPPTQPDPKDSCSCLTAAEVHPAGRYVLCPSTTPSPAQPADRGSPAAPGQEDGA
Procedure, shortened: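 Z′-LYTE FRET readout: after 1 h kinase reaction (AXL, Tyr 2 peptide, ATP, compound dilutions), a 1 h protease step cuts unphosphorylated substrate. Excitation at 400 nm, signals at 445 nm and 520 nm used to derive IC50.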

[1] = molecular target: T2, FLT-3 kinase domain recombinant protein (Homo sapiens, UniProt P36888); assay: Inhibition rate on FLT3 kinase (ELISA); assay type: biochemical; conditions: two values per compound; for inhibition at 0.01 µM / inhibition at 0.1 µM / inhibition at 1 µM: read-out: Inhibition rate (%) against receptor tyrosine kinase FLT-3
T2 construct: 50 μL FLT-3 kinase domain recombinant protein diluted with reaction buffer to initiate the reaction
T2 sequence (P36888 610-943 limits assumed): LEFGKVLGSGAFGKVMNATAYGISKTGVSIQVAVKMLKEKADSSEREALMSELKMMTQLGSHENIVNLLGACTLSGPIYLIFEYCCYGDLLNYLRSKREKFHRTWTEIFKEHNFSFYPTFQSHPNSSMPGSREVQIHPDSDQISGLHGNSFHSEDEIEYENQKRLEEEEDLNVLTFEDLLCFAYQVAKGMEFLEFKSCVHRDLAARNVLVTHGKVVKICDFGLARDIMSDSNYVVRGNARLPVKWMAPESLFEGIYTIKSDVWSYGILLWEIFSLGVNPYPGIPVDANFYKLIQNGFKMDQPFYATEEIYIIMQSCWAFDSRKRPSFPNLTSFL
Description: Conventional enzyme-linked immunosorbent assay (ELISA) method is used, and the specific steps are as follows
12,000 g of compounds were centrifuged for 5 min, DMSO was added to make a 10^−2M stock solution, vortexed uniformly and sonicated for 10 min for standby application, and stored at −40° C. The compounds were diluted from the stock solution with DMSO to 100 times the concentration to be tested (concentration of DMSO in the system being 1%) during the test.
1. The enzyme reaction substrate Poly (Glu, Tyr) 4:1 was diluted to 20 μg/mL with potassium-free PBS (10 mM sodium phosphate buffer, 150 mM NaCl, pH 7.2-7.4), the ELISA plate was coated with same in 125 μL/well, and reacted at 37° C. for 12-16 hours, the liquid in wells was discarded, the plate was washed three times, for 5 minutes each time, with T-PBS (potassium-free PBS with 0.1% Tween-20, 200 μL/well), and the ELISA plate was dried in an oven at 37° C. for 1-2 hours.
2. To each well were added 49 μL of ATP solution diluted with reaction buffer (50 mM HEPES pH 7.4, 50 mM MgCl2, 0.5 mM MnCl2, 0.2 mM Na3VO4, 1 mM DTT), 1 μL of compounds to be tested, and 50 μL FLT-3 kinase domain recombinant protein diluted with reaction buffer to initiate the reaction (two ATP-free control wells are required for each experiment). Subject to a shaker (100 rpm) at 37° C. and reacted for 1 hour. The liquid in wells was discarded, and the plate was washed three times with T-PBS.
(§1) 3. Antibody PY99 diluent (the antibody was diluted in 1:500 with T-PBS which contains 5 mg/mL BSA) was added in 100 μL/well, subjected same to a shaker at 37° C. and reacted for 0.5 hour. The liquid in wells was discarded, and the plate was washed three times with T-PBS.
as §1, with “4. Horseradish peroxidase labeled goat anti-mouse secondary antibody” for “3. Antibody PY99”, “1:2000” for “1:500”, “mg/ml” for “mg/mL”
5. 2 mg/ml of OPD developing solution (diluted with 0.1 M citric acid-sodium citrate buffer which contains 0.03% H2O2 (pH=5.4)) was added in 100 μL/well, and reacted at 25° C. in the dark for 1-10 minutes.
6. 2 M H2SO4 was added in 50 μL/well to stop the reaction, and the reading from the wavelength-adjustable microwell plate ELIASA VERSAmax was performed with a wavelength of 490 nm.

[2] = In vivo pharmacokinetic and bioavailability experiments of rats; set-up: species or system SD rats; conditions: for bioavailability / AUC(0-inf) / AUC(0-t) / half-life / Cmax / clearance: Sprague-Dawley, rat, plasma; for bioavailability: po, 25 mg/kg, read-out: F (oral bioavailability); for Cmax: read-out: Cmax
Description: Pharmacokinetic and bioavailability experiments of rats. SD rats were administered orally (25 mg/kg) and intravenously (2.5 to 5 mg/kg) at a single dose. Animal blood samples were taken at appropriate time points after administration, heparin was added as anticoagulant, and same were centrifuged at 8000 rpm/min for 6 minutes, the supernatant was then taken and stored at −20° C. for HPLC-MS analysis. The proteins in blood samples were precipitated with acetonitrile at 12000 rpm for 10 min, and the supernatant was used for HPCL-MS analysis. Data were fit using DAS2.0 to obtain compartmental model and non-compartmental model parameters, respectively. The oral bioavailability of each compound was calculated according to AUC data.

[3] = SD rats, Po, 25 mg/kg single dose
[4] = SD rats, iv, 5 mg/kg single dose

Row | Compound | IC50 (AXL kinase) [nM] | Inhibition rate (%) against receptor tyrosine kinase FLT-3 ([1]; compound 10 nM, 0.01 µM) | inhibition at 0.01 µM ([1]; compound 10 nM) [%] | Inhibition rate (%) against receptor tyrosine kinase FLT-3 ([1]; compound 100 nM, 0.1 µM) | inhibition at 0.1 µM ([1]; compound 100 nM) [%] | Inhibition rate (%) against receptor tyrosine kinase FLT-3 ([1]; compound 1000 nM, 1 µM) | inhibition at 1 µM ([1]; compound 1000 nM) [%] | bioavailability [2] [%] | AUC(0-inf) [2, 3] [ng·h/mL] | AUC(0-t) [2, 3] [ng·h/mL] | half-life [2, 3] [h] | Cmax [2, 3] [ng/mL] | AUC(0-inf) [2, 4] [ng·h/mL] | AUC(0-t) [2, 4] [ng·h/mL] | clearance [2, 4] [mL/min/kg] | half-life [2, 4] [h] | Cmax [2, 4] [ng/mL] | pharmacokinetic parameter, overall judgement ([2]; SD rats, hydrochlorides, in words) | inhibitory activity on AXL kinase (AXL kinase)
1 | CCc1ccc2c(c1)c(=O)c(C(=O)Nc1ccc(Oc3ncnc4cc(OCCN5CCCC5)c(OC)cc34)c(F)c1)c(C)n2C [TL4830058, 6-ethyl-N-(3-fluoro-4-((6-methoxy-7-(2-(pyrrolidin-1-yl)ethoxy)quinazolin-4-yl)oxy)phenyl)-1,2-dimethyl-4-oxo-1,4-dihydroquinoline-3-carboxamide] | 8 | 49.4% | 54.7 | 75.8% | 74 | 92.3% | 95.2 | 28 | 50300 | 39700 | 11 | 4090 | 28700 | 28400 | 3 | 4.05 | 13300 | appropriate pharmacokinetic parameter | 
2 | Cc1c(C(=O)Nc2ccc(Oc3ncnc4[nH]cc(-c5ccccc5)c34)c(F)c2)c(=O)c2cc(F)ccc2n1C [TL50087, 6-fluoro-N-(3-fluoro-4-(5-phenyl-7H-pyrrolo[2,3-d]pyrimidin-4-yloxy)phenyl)-1,2-dimethyl-4-oxo-1,4-hydroquinoline-3-carboxamide] | > 10000 | 41.8% | 46.1 | 45.8% | 47.4 | 67.2% | 84 |  |  |  |  |  |  |  |  |  |  |  | 
3 | 6-ethyl-N-(3-fluorophenyl-1H-pyrrolo[2,3-d]pyridin-4-yl)oxy)phenyl)-1,2-dimethyl-4-oxo-1,4-dihydroquinoline-3-carboxamide [TL4800172] | 29.8 | 63.7% and 55.0% |  | 74.9% and 67.8% |  | 85.5% and 72.0% |  |  |  |  |  |  |  |  |  |  |  |  | strong inhibitory activity
4 | CCc1ccc2c(c1)c(=O)c(C(=O)Nc1ccc(Oc3ncnc4[nH]cc(-c5ccccc5)c34)c(F)c1)c(CC)n2C [TL4830005, 2,6-diethyl-N-(3-fluoro-4-(5-phenyl-7H-pyrrolo[2,3-d]pyrimidin-4-yloxy)phenyl)-1-methyl-4-oxo-1,4-dihydroquinoline-3-carboxamide] | 23 | 49.8% | 55.7 | 53.3% | 50.1 | 59.9% | 71.4 |  |  |  |  |  |  |  |  |  |  |  | strong inhibitory activity

The remaining compounds from weak to strong by IC50 (AXL kinase), led by results:

Row | IC50 (AXL kinase) [nM] | Inhibition rate (%) against receptor tyrosine kinase FLT-3 ([1]; compound 10 nM, 0.01 µM) | inhibition at 0.01 µM ([1]; compound 10 nM) [%] | Inhibition rate (%) against receptor tyrosine kinase FLT-3 ([1]; compound 100 nM, 0.1 µM) | inhibition at 0.1 µM ([1]; compound 100 nM) [%] | Inhibition rate (%) against receptor tyrosine kinase FLT-3 ([1]; compound 1000 nM, 1 µM) | inhibition at 1 µM ([1]; compound 1000 nM) [%] | bioavailability [2] [%] | AUC(0-inf) [2, 3] [ng·h/mL] | AUC(0-t) [2, 3] [ng·h/mL] | half-life [2, 3] [h] | Cmax [2, 3] [ng/mL] | AUC(0-inf) [2, 4] [ng·h/mL] | AUC(0-t) [2, 4] [ng·h/mL] | clearance [2, 4] [mL/min/kg] | half-life [2, 4] [h] | Cmax [2, 4] [ng/mL] | pharmacokinetic parameter, overall judgement ([2]; SD rats, hydrochlorides, in words) | inhibitory activity on AXL kinase (AXL kinase) | Compound
5 | 1120 | 66.5% | 50.2 | 66.1% | 58.3 | 70.1% | 67.1 |  |  |  |  |  |  |  |  |  |  |  |  | CCc1ccc2c(c1)c(=O)c(C(=O)Nc1ccc(Oc3ncnc4[nH]cc(-c5ccccc5)c34)c(C)c1)c(C)n2C [TL4830016, 6-ethyl-12-dimethyl-N-(3-methyl-4-(5-phenyl-7H-pyrrolo[2,3-d]pyrimidin-4-yloxy)phenyl)-4-oxo-1,4-dihydroquinoline-3-carboxamide]
6 | 38 | 40.0% | 52.3 | 44.5% | 53.8 | 87.0% | 92.3 | 0.2 | 151 | 98.9 | 14.5 | 7.15 | 15200 | 9780 | 5.83 | 15.8 | 885 |  |  | COc1cc2ncnc(Oc3ccc(NC(=O)c4cn(-c5ccc(F)cc5)c5cc(N6CCNCC6)c(F)cc5c4=O)cc3F)c2cc1OC [TL4830042, N-(4-(6,7-dimethoxyquinazolin-4-yloxy)-3-fluorophenyl)-6-fluoro-1-(4-fluorophenyl)-4-oxo-7-(piperazin-1-yl)-1,4-dihydroquinoline-3-carboxamide]
7 | 16 | 59.8% | 65.3 | 66.5% | 74.3 | 91.6% | 100 |  |  |  |  |  |  |  |  |  |  |  | strong inhibitory activity | CCc1ccc2c(c1)c(=O)c(C(=O)Nc1ccc(Oc3ncnc4[nH]cc(-c5ccc(OC)cc5)c34)c(F)c1)c(C)n2C [GDL5000037, 6-ethyl-N-(3-fluoro-4-(5-(4-methoxyphenyl)-7H-pyrrolo[2,3-d]pyrimidin-4-yloxy)phenyl)-1,2-dimethyl-4-oxo-1,4-dihydroquinoline-3-carboxamide]
